Consider six compounds from ChEMBL document CHEMBL1777696, “Anti-inflammatory activity of constituents from Glechoma hederacea var. longituba” (Bioorg Med Chem Lett, 2011).

SMILES strings stand for the structures. Active and inactive are the calls of the source. The rule behind the calls is not given here.

Series [1] concerns HepG2. Kind of series: Inhibition of TNF-alpha-induced iNOS mRNA expression in human HepG2 cells expressing NF-kappaB preincubated 1 hr before TNFalpha challenge measured after 6 hrs by RT-PCR analysis. Type of series: functional, cell-based.
For series [2], the system named is HepG2. Kind of series: Inhibition of TNF-alpha-induced NF-kappaB transactivation expressed in human HepG2 cells at 10 uM preincubated 1 hr before TNFalpha challenge measured after 1 hr by luciferase reporter gene assay. The series is classed as cell-based.
Series [3] has as its system HepG2. Nature of the series: Inhibition of TNF-alpha-induced COX2 mRNA expression in human HepG2 cells expressing NF-kappaB preincubated 1 hr before TNFalpha challenge measured after 6 hrs by RT-PCR analysis. Type of series: functional, cell-based.
Series [4] has as its system HepG2. Kind of series: Inhibition of TNF-alpha-induced NF-kappaB transactivation expressed in human HepG2 cells at 20 uM preincubated 1 hr before TNFalpha challenge measured after 1 hr by luciferase reporter gene assay. The series is classed as cell-based. A general note: In a reporter assay the amount or activity of a reporter protein is the signal.
The subject of series [5] is HepG2. Kind of series: Cytotoxicity against human HepG2 cells up to 20 uM after 24 hrs by MTS assay. The series is classed as cell-based. To be noted: hepg2, 24 h.
Series [6] relates to HepG2. Nature of the series: Inhibition of TNF-alpha-induced NF-kappaB transactivation expressed in human HepG2 cells at 0.1 to 20 uM preincubated 1 hr before TNFalpha challenge measured after 1 hr by luciferase reporter gene assay. Type of series: cell-based.

In general, inhibition refers to the change of the read-out against control, counted positive when it falls. Turning to `COC(=O)[C@@H](Cc1ccc(O)c(O)c1)OC(=O)/C=C/c1ccc(OC)c(O)c1`, the inhibition entry in series [1] is “Dose-dependent effect”; in series [2], 28.7%; in series [3] it was “Dose-dependent effect”; in series [4], 45.4%. Further, in series [5], the Activity entry is reported as “Non-toxic”.

`O=C(OCc1ccccc1)c1ccc(O)c(O[C@@H]2O[C@H](CO)[C@@H](O)[C@H](O)[C@H]2O)c1`: in series [6], the inhibition entry was “Active”. For the same compound, the Activity result in series [5] was “Non-toxic”.

In the case of `COc1cc(/C=C/C(=O)O[C@H](Cc2ccc(O)c(O)c2)C(=O)O)ccc1O`, in series [6], the inhibition entry was “Active”. Also, in series [5], the Activity entry is “Non-toxic”.

As for `CCOC(=O)[C@@H](Cc1ccc(O)c(O)c1)OC(=O)/C=C/c1ccc(O)c(O)c1` [ETHYL ROSMARINATE], the figures for the inhibition entry in series [1], in series [3] and in series [4] were “Dose-dependent effect”, “Dose-dependent effect” and 57%, respectively. For the same compound, in series [5], the Activity entry was “Non-toxic”.

As to `COC(=O)[C@@H](Cc1ccc(O)c(O)c1)OC(=O)/C=C/c1ccc(O)c(O)c1` [METHYL ROSMARINATE], the inhibition result is “Dose-dependent effect” in series [1], “Dose-dependent effect” in series [3] and 44.3% in series [4]. Also, in series [5], the Activity result is reported as “Non-toxic”.

The compound `O=C(/C=C/c1ccc(O)c(O)c1)O[C@H](Cc1ccc(O)c(O)c1)C(=O)O` [ROSMARINIC ACID] came in with an inhibition in series [4] of 22.7%. Besides, the Activity entry in series [5] is given as “Non-toxic”.
